Assay results taken from US20260159499A1, “COMPOUND AS FAK INHIBITOR AND USE THEREOF” (WIGEN BIOMEDICINE TECHNOLOGY (SHANGHAI) CO., LTD., priority 2021, published 2026).

Columns and labels:
[1] = test system: PC3 cells; assay: PC3 cell proliferation, 3D activity detection; type: cell-based, human; conditions: Homo sapiens, PC-3, 336 h; PC3, 3D culture, 14 days, numeric (mean where marked *); read-out: 3D IC50 against PC3 cells
Method: 3D activity detection: PC3 cells were seeded in a 96-well plate at 1200 cells/well, and 3D culture was performed. 14 days after the compound serially diluted was added, the growth of the cells was determined. The inhibition percentage and IC50 of the compound were calculated compared to the DMSO control group.

[2] = test system: PC3 cells; assay: PC3 cell proliferation, 2D activity detection; type: cell-based, human; conditions: Homo sapiens, PC-3; PC3, 2D, 72 h, numeric; read-out: 2D IC50 against PC3 cells
Method: 2D activity detection: 1200 PC3 cells were seeded in a 96-well plate. After overnight adherence culture, the compound serially diluted was added. 72 h after addition, Cell Titer-Lumi (Beyotime C0068XL) was added to measure the ATP content in the cells. The growth of the cells was evaluated, and IC50 of the compounds against cell growth was calculated.

[3] = test system: Human prostatic cancer PC3 cells; assay: In vivo efficacy test in PC-3 model; parameters: species or system BALB/c nude mice; conditions: 25 mg/kg, PO, QD (21 days)
Method: Female BALB/c nude mice (aged 6 weeks, 18-22 g) were provided by Vital River Laboratory Animal Technology Co., Ltd. (China) and used one week after quarantine and acclimation. All animals were kept in a room at 23±2° C. with a relative humidity of 50±5%, artificial lighting was provided from 08:00 to 20:00 every day, and the air was exchanged 13-18 times per hour.
After being subcultured, the cells were collected when they reached the desired amount. 1×10^7 PC3 cells were injected into the left dorsal side of each nude mouse, and the animals were randomly grouped for administration after tumors grew to 100-200 mm^3. The mice in the solvent control group were intragastrically administered 0.5% MC-Tween-80 twice a day; the mice in the compound groups were intragastrically administered 0.5% MC-Tween-80 suspension once a day. On Tuesday and Thursday each week, tumor volumes and body weight of the mice were measured, and the nude mice were sacrificed on day 21 after the administration.
(§1) The toxicity of the compounds was evaluated according to the body weight of the mice.

[4] = test system: Human pancreatic cancer Mia PaCa-2 cells; assay: In vivo efficacy test in MiaPaCa-2 model; conditions: 25 mg/kg, PO, QD (21 days)
Method: After being subcultured, the cells were collected when they reached the desired amount. 1×10^7 Mia PaCa-2 cells were injected into the left dorsal side of each nude mouse, and the animals were randomly grouped for administration after tumors grew to 100-200 mm^3. The mice in the solvent control group were intragastrically administered 0.5% MC-Tween-80 twice a day; the mice in the compound groups were intragastrically administered 0.5% MC-Tween-80 suspension once a day. On Tuesday and Thursday each week, tumor volumes and body weight of the mice were measured, and the nude mice were sacrificed on day 21 after the administration.
as §1

[5] = target: FAK recombinant protein (Homo sapiens, UniProt Q05397); assay: Inhibitory activity against FAK enzyme; type: biochemical; conditions: TK substrate, ATP
How it was run: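 Compound preincubated with FAK recombinant protein 10 min at room temperature, then biotin-labeled TK substrate and ATP added and incubated 1 h at room temperature.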

[6] = In vivo pharmacokinetic experiment in mice; parameters: species or system CD-1 female mice; conditions: CD-1 mice
Method: On the day of the experiment, animals in the intravenous group were administered the corresponding compound by single injection via the tail vein at an administration volume of 10 mL/kg, and animals in the oral group were administered the corresponding compound by single intragastric injection at an administration volume of 10 mL/kg. The animals were weighed before administration, and the administration volume was calculated according to the body weight. […] About 200 μL of whole blood was collected through the orbital venous plexus at each time point and used to prepare plasma for concentration determination by high-performance liquid chromatography-tandem mass spectrometry (LC-MS/MS). The plasma concentrations were processed using a non-compartmental model of Winnolin pharmacokinetic software, and the pharmacokinetic parameters were calculated using a linear-log trapezoidal method.

[7] = test system: PC3 cells; assay: Inhibition of PC3 cell adherence; type: cell-based; conditions: Homo sapiens, PC-3; PC3, 4 h treatment; read-out: Inhibitory activity against PC-3 cell adherence IC50
Method: PC3 cells were added at 8000 cells/well. 4 h after the cells were treated with the compound, the number of adherent cells was counted. The inhibition percentages and IC50 of the compounds were calculated compared to the DMSO group.

[8] = test system: Mouse colon cancer MC38 cells; assay: In vivo efficacy experiment in MC38 model; parameters: species or system BALB/c mice; conditions: single drug 50 mg/kg, PO, QD (21 days)
Method: The BALB/c mice were subcutaneously injected with 1×10^6 MC38 cells on the right side to form tumors. […] The administration was then started. Tumor volumes were measured with a caliper on day 3, day 7, day 10, day 14, day 17 and day 21 after the administration.

[9] = female, mouse, plasma, injection (IV) 1 mg/kg (footnote)
[10] = female, mouse, plasma, oral administration 10 mg/kg

FAK recombinant protein, sequence (Q05397 whole entry, species assumed): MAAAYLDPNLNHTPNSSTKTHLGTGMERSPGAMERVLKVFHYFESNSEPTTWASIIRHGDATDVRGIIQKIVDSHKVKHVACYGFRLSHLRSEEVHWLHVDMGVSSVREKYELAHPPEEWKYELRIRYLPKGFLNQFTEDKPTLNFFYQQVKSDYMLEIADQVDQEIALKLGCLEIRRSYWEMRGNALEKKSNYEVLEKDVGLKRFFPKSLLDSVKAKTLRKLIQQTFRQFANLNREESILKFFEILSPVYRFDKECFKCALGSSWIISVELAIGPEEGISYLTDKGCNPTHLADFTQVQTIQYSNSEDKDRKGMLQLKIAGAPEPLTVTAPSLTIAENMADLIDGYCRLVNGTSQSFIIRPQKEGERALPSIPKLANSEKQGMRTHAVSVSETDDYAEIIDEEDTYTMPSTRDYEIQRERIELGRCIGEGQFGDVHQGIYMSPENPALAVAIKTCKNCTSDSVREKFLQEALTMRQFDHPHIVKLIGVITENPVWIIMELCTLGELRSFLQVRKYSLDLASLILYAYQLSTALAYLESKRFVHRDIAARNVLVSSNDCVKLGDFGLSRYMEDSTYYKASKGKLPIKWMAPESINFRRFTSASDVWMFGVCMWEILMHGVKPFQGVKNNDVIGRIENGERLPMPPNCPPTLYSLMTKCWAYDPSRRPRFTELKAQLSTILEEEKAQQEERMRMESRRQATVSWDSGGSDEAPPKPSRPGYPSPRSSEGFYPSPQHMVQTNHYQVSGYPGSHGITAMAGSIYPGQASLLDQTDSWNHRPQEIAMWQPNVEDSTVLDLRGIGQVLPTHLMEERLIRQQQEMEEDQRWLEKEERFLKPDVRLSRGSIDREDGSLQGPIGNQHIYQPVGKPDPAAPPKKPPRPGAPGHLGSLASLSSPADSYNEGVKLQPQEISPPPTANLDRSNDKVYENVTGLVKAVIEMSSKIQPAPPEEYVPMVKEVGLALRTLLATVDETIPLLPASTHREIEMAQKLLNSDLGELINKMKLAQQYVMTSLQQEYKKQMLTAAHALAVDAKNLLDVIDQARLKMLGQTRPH

For `COc1cc(N2CC3(CCN(C)CC3)C2)ccc1Nc1ncc(C(F)(F)F)c(Oc2cccc3c2C(=O)N(C)C3)n1` [Compound 90, 7-((2-((2-methoxy-4-(7-methyl-2,7-diazaspiro[3.5]non-2-yl)phenyl)amino)-5-(trifluoromethyl)pyrimidin-4-yl)oxy)-2-methylisoindolin-1-one], the IC50 [1] was 0.8 nM, the IC50 [2] was > 10000 nM and the “Change in body weight” value [3] was −0.5%. The “TGI (%)” value [3] was 81.65%, the “Change in body weight” value [4] was “+3.67%” and the “TGI (%)” value [4] was 83.72%. The IC50 [5] was < 10 nM, the “oral bioavailability and oral absorption properties (in words)” value ([6]; oral 10 mg/kg) was “good oral bioavailability and good oral absorption properties” and the AUC(0-t) [6, 9] was 812 ng·h/mL. The clearance [6, 9] was 20.5 mL/min/kg, the half-life [6, 9] was 3.08 h and the Vd ([6]; female, mouse, plasma, injection (IV) 1 mg/kg (footnote), read-out: Vdss) was 5.34 L/kg. For the same molecule, the AUC(0-t) [6, 10] was 7460 ng·h/mL, the Cmax [6, 10] was 635 ng/mL and the Tmax [6, 10] was 4 h. For the same molecule, the half-life [6, 10] was 2.82 h, the bioavailability ([6]; female, mouse, plasma, oral administration 10 mg/kg vs injection) was 92% and the IC50 [7] was 1.86 nM. The “Change in body weight” value [8] was “+13.54%” and the “TGI (%)” value [8] was 59.02%.
